Results taken from PubChem BioAssay (NCI).
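At the GI50, growth is halved. TGI is the concentration that stops growth completely.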

How the values were obtained:
Assay in all cases: growth of human tumour cells (NCI), 384-well format
A498 renal = system: A498 renal
A549 NSCLC = system: A549 NSCLC
ACHN renal = system: ACHN renal
BT-549 breast = system: BT-549 breast
CAKI-1 renal = system: CAKI-1 renal
COLO 205 colon = system: COLO 205 colon
EKVX NSCLC = system: EKVX NSCLC
HCC-2998 colon = system: HCC-2998 colon
HCT-116 colon = system: HCT-116 colon
HCT-15 colon = system: HCT-15 colon
HL-60(TB) leukemia = system: HL-60(TB) leukemia
HOP-92 NSCLC = system: HOP-92 NSCLC
HS 578T breast = system: HS 578T breast
HT29 colon = system: HT29 colon
IGROV1 ovarian = system: IGROV1 ovarian
K-562 leukemia = system: K-562 leukemia
KM12 colon = system: KM12 colon
LOX IMVI melanoma = system: LOX IMVI melanoma
MDA-MB-231 breast = system: MDA-MB-231 breast
MDA-MB-435 melanoma = system: MDA-MB-435 melanoma
MDA-MB-468 breast = system: MDA-MB-468 breast
MOLT-4 leukemia = system: MOLT-4 leukemia
NCI-H226 lung = system: NCI-H226 lung
NCI-H460 NSCLC = system: NCI-H460 NSCLC
NCI-H522 lung = system: NCI-H522 lung
NCI/ADR-RES ovarian = system: NCI/ADR-RES ovarian
OVCAR-3 ovarian = system: OVCAR-3 ovarian
OVCAR-4 ovarian = system: OVCAR-4 ovarian
OVCAR-8 ovarian = system: OVCAR-8 ovarian
PC-3 prostate = system: PC-3 prostate
RPMI-8226 leukemia = system: RPMI-8226 leukemia
RXF 393 renal = system: RXF 393 renal
SF-268 CNS = system: SF-268 CNS
SF-295 CNS = system: SF-295 CNS
SK-MEL-2 melanoma = system: SK-MEL-2 melanoma
SK-MEL-28 melanoma = system: SK-MEL-28 melanoma
SK-MEL-5 melanoma = system: SK-MEL-5 melanoma
SK-OV-3 ovarian = system: SK-OV-3 ovarian
SNB-19 CNS = system: SNB-19 CNS
SNB-75 CNS = system: SNB-75 CNS
SR leukemia = system: SR leukemia
SW-620 colon = system: SW-620 colon
TK-10 renal = system: TK-10 renal
U251 glioblastoma = system: U251 glioblastoma
UACC-257 melanoma = system: UACC-257 melanoma
UACC-62 melanoma = system: UACC-62 melanoma
UO-31 renal = system: UO-31 renal

Q: `O=c1[nH]nc2c3c(cccc13)NC(CN1Cc3ccccc3C1)=N2` was tested. Which GI50 (A498 renal) did it give?
A: Its GI50 is 3.21 µM.

Q: And the TGI (A498 renal)?
A: The TGI was 12.4 µM.

Q: And the GI50 (A549 NSCLC)?
A: Its GI50 is 5.19 µM.

Q: What about the TGI (A549 NSCLC) of the same compound?
A: Its TGI is 67.5 µM.

Q: And the GI50 (ACHN renal)?
A: Its GI50 is 5.5 µM.

Q: What about the TGI (ACHN renal) of the same compound?
A: Its TGI is greater than 78.1 µM.

Q: And the GI50 (BT-549 breast)?
A: Its GI50 is 6.22 µM.

Q: And the TGI (BT-549 breast)?
A: Its TGI is 39.7 µM.

Q: What about the GI50 (CAKI-1 renal) of the same compound?
A: Its GI50 is 2.03 µM.

Q: And the TGI (CAKI-1 renal)?
A: Its TGI is greater than 100 µM.

Q: What about the GI50 (COLO 205 colon) of the same compound?
A: The GI50 was 5.51 µM.

Q: And the TGI (COLO 205 colon)?
A: Its TGI is greater than 56.2 µM.

Q: What about the GI50 (EKVX NSCLC) of the same compound?
A: Its GI50 is 3.1 µM.

Q: And the TGI (EKVX NSCLC)?
A: The TGI was greater than 100 µM.

Q: What about the GI50 (HCC-2998 colon) of the same compound?
A: The GI50 was 3.34 µM.

Q: What about the TGI (HCC-2998 colon) of the same compound?
A: The TGI was 17.9 µM.

Q: And the GI50 (HCT-116 colon)?
A: The GI50 was 8.67 µM.

Q: And the TGI (HCT-116 colon)?
A: The TGI was greater than 100 µM.

Q: And the GI50 (HCT-15 colon)?
A: The GI50 was 8.44 µM.

Q: What about the TGI (HCT-15 colon) of the same compound?
A: The TGI was greater than 100 µM.

Q: And the GI50 (HL-60(TB) leukemia)?
A: Its GI50 is 12.9 µM.

Q: And the TGI (HL-60(TB) leukemia)?
A: The TGI was greater than 100 µM.

Q: What about the GI50 (HOP-92 NSCLC) of the same compound?
A: Its GI50 is 2.5 µM.

Q: What about the TGI (HOP-92 NSCLC) of the same compound?
A: The TGI was 16.9 µM.

Q: And the GI50 (HS 578T breast)?
A: The GI50 was 5.78 µM.

Q: What about the TGI (HS 578T breast) of the same compound?
A: The TGI was greater than 100 µM.

Q: And the GI50 (HT29 colon)?
A: The GI50 was 4.31 µM.

Q: And the TGI (HT29 colon)?
A: The TGI was 26.3 µM.

Q: And the GI50 (IGROV1 ovarian)?
A: The GI50 was 3.55 µM.

Q: What about the TGI (IGROV1 ovarian) of the same compound?
A: The TGI was 70.6 µM.

Q: And the GI50 (K-562 leukemia)?
A: The GI50 was 7.51 µM.

Q: What about the TGI (K-562 leukemia) of the same compound?
A: Its TGI is greater than 100 µM.

Q: What about the GI50 (KM12 colon) of the same compound?
A: Its GI50 is 6.04 µM.

Q: What about the TGI (KM12 colon) of the same compound?
A: Its TGI is greater than 62.4 µM.

Q: What about the GI50 (LOX IMVI melanoma) of the same compound?
A: Its GI50 is 6.61 µM.

Q: What about the TGI (LOX IMVI melanoma) of the same compound?
A: The TGI was greater than 61.4 µM.

Q: And the GI50 (MDA-MB-231 breast)?
A: The GI50 was 2.81 µM.

Q: What about the TGI (MDA-MB-231 breast) of the same compound?
A: Its TGI is 14.5 µM.

Q: And the GI50 (MDA-MB-435 melanoma)?
A: The GI50 was 3.74 µM.

Q: And the TGI (MDA-MB-435 melanoma)?
A: Its TGI is 15.6 µM.

Q: What about the GI50 (MDA-MB-468 breast) of the same compound?
A: Its GI50 is 2.22 µM.

Q: What about the TGI (MDA-MB-468 breast) of the same compound?
A: Its TGI is 9.99 µM.

Q: And the GI50 (MOLT-4 leukemia)?
A: The GI50 was 2.5 µM.

Q: And the TGI (MOLT-4 leukemia)?
A: The TGI was 7.73 µM.

Q: And the GI50 (NCI-H226 lung)?
A: The GI50 was 3.21 µM.

Q: What about the TGI (NCI-H226 lung) of the same compound?
A: Its TGI is 52 µM.

Q: And the GI50 (NCI-H460 NSCLC)?
A: The GI50 was 5.18 µM.

Q: What about the TGI (NCI-H460 NSCLC) of the same compound?
A: The TGI was greater than 71.8 µM.

Q: What about the GI50 (NCI-H522 lung) of the same compound?
A: Its GI50 is 2.49 µM.

Q: What about the TGI (NCI-H522 lung) of the same compound?
A: Its TGI is 7.83 µM.

Q: And the GI50 (NCI/ADR-RES ovarian)?
A: Its GI50 is 9.41 µM.

Q: What about the TGI (NCI/ADR-RES ovarian) of the same compound?
A: The TGI was greater than 100 µM.

Q: And the GI50 (OVCAR-3 ovarian)?
A: The GI50 was 3.75 µM.

Q: What about the TGI (OVCAR-3 ovarian) of the same compound?
A: Its TGI is greater than 88.3 µM.

Q: And the GI50 (OVCAR-4 ovarian)?
A: The GI50 was 2.14 µM.

Q: And the TGI (OVCAR-4 ovarian)?
A: Its TGI is 12 µM.

Q: What about the GI50 (OVCAR-8 ovarian) of the same compound?
A: Its GI50 is 5.38 µM.

Q: And the TGI (OVCAR-8 ovarian)?
A: The TGI was greater than 100 µM.

Q: What about the GI50 (PC-3 prostate) of the same compound?
A: The GI50 was 4.32 µM.

Q: What about the TGI (PC-3 prostate) of the same compound?
A: The TGI was 57.5 µM.

Q: What about the GI50 (RPMI-8226 leukemia) of the same compound?
A: The GI50 was 13.8 µM.

Q: What about the TGI (RPMI-8226 leukemia) of the same compound?
A: The TGI was greater than 100 µM.

Q: And the GI50 (RXF 393 renal)?
A: The GI50 was 2.26 µM.

Q: What about the TGI (RXF 393 renal) of the same compound?
A: The TGI was 7.28 µM.

Q: And the GI50 (SF-268 CNS)?
A: Its GI50 is 4.68 µM.

Q: What about the TGI (SF-268 CNS) of the same compound?
A: The TGI was 37.2 µM.

Q: What about the GI50 (SF-295 CNS) of the same compound?
A: The GI50 was 10.7 µM.

Q: And the TGI (SF-295 CNS)?
A: Its TGI is greater than 100 µM.

Q: What about the GI50 (SK-MEL-2 melanoma) of the same compound?
A: Its GI50 is greater than 87.1 µM.

Q: What about the TGI (SK-MEL-2 melanoma) of the same compound?
A: The TGI was greater than 100 µM.

Q: What about the GI50 (SK-MEL-28 melanoma) of the same compound?
A: Its GI50 is 5.99 µM.

Q: What about the TGI (SK-MEL-28 melanoma) of the same compound?
A: Its TGI is 27.6 µM.

Q: And the GI50 (SK-MEL-5 melanoma)?
A: The GI50 was 3.42 µM.

Q: And the TGI (SK-MEL-5 melanoma)?
A: Its TGI is greater than 56.2 µM.

Q: What about the GI50 (SK-OV-3 ovarian) of the same compound?
A: The GI50 was 3.49 µM.

Q: And the TGI (SK-OV-3 ovarian)?
A: Its TGI is greater than 62.2 µM.

Q: What about the GI50 (SNB-19 CNS) of the same compound?
A: The GI50 was 48 µM.

Q: And the TGI (SNB-19 CNS)?
A: The TGI was greater than 100 µM.

Q: And the GI50 (SNB-75 CNS)?
A: Its GI50 is 2.32 µM.

Q: What about the TGI (SNB-75 CNS) of the same compound?
A: The TGI was 18.9 µM.

Q: What about the GI50 (SR leukemia) of the same compound?
A: The GI50 was 2.36 µM.

Q: And the TGI (SR leukemia)?
A: Its TGI is 8.2 µM.

Q: And the GI50 (SW-620 colon)?
A: The GI50 was 8.37 µM.

Q: And the TGI (SW-620 colon)?
A: The TGI was greater than 100 µM.

Q: And the GI50 (TK-10 renal)?
A: Its GI50 is 2.7 µM.

Q: And the TGI (TK-10 renal)?
A: Its TGI is 17.1 µM.

Q: And the GI50 (U251 glioblastoma)?
A: The GI50 was 7.61 µM.

Q: And the TGI (U251 glioblastoma)?
A: Its TGI is greater than 100 µM.

Q: And the GI50 (UACC-257 melanoma)?
A: The GI50 was greater than 100 µM.

Q: What about the TGI (UACC-257 melanoma) of the same compound?
A: Its TGI is greater than 100 µM.

Q: And the GI50 (UACC-62 melanoma)?
A: Its GI50 is 7.14 µM.

Q: And the TGI (UACC-62 melanoma)?
A: The TGI was greater than 100 µM.

Q: What about the GI50 (UO-31 renal) of the same compound?
A: The GI50 was 11.4 µM.

Q: And the TGI (UO-31 renal)?
A: The TGI was greater than 100 µM.
